According to patent publication US20160095842A1 (priority 2013, published 2016):
Several values for one entry are separate records, joined by “and”; a condition that tells them apart may be missing. Equal entries are not always repeated. Entries after “also recorded” stand apart in the source; their conditions may differ.

Tests used:
pAKT (AKTpS473) = assay: Immunohistochemistry of RT112 tumors: pAKT; format: in vivo, female Hsd: Athymic Nude-nu mice; details: 7 days, Compound A 50 mg/kg, Compound B 10 mg/kg, 2 hours after last treatment
Description: (§1) Animals: Experiments are performed in female Hsd: Athymic Nude-nu mice obtained from Harlan Cpb, Germany. Animals are from 8 to 14 weeks of age at treatment start and housed under Optimized Hygienic Conditions in Makrolon type III cages (max. 10 animals per cage) with free access to food and water
(§2) Establishment of RT112 tumors and compound treatments: The RT112 human urinary bladder carcinoma cell line was initially derived from a patient with untreated primary urinary bladder carcinoma in 1973 (Marshall et al. 1977, Masters et al. 1986). RT112 cells are cultured as in Example 1. Tumor establishment is done as in Example 2. Treatments are initiated when the mean tumor volumes are approximately 240 mm^3 (20 days post tumor cells injection).
(§3) Dissection: 2 hours after the last treatment animals are anaesthetized by Forene inhalation narcosis and euthanized by cervical dislocation. Each tumor is dissected, is cut into two equal pieces and is processed for formalin-fixed paraffin embedded sectioning. […]
(§4) Slides are mounted on a Ventana Discovery XT immunostainer and are processed for automated IHC by using a ChromoMAP kit and an OmniMAP anti Rabbit polymer-based amplification system. […] Endogenous peroxidase activities were subsequently quenched by using the ready to use solution from the ChromoMAP kit. […]

[1] = test system: RT112 urinary bladder carcinoma; assay: Antitumor activity against s.c. RT112 tumors in nude mice; format: in vivo, female Hsd: Athymic Nude-nu mice; details: for Mean change of tumor volume / Final Tumor Volume: Clarke 1997 analysis table; for Final Tumor Volume: end of 14 days treatment, in mm³ (unit assumed)
Description: Animals: Experiments are performed in female Hsd: Athymic Nude-nu mice obtained from Harlan Cpb, Germany. Animals are from 8 to 14 weeks of age at treatment start and are housed under Optimized Hygienic Conditions in Makrolon type III cages (max. 10 animals per cage) with free access to food and water
Establishment of RT112 tumors: The RT112 human urinary bladder carcinoma cell line was initially derived from a patient with untreated primary urinary bladder carcinoma in 1973. RT112 cells are cultured as in Example 1. To establish tumors, RT112 cells suspended in Hanks' balanced salt solution (HBSS) containing 50% Matrigel (BD #356234) are injected subcutaneously into the right flank. A total of 5×10^6 cells in 100 μl are injected per animal.
Evaluation of antitumor activity: Treatments are initiated when the mean tumor volumes were approximately 180 mm^3 (14 days post tumor cells injection). Body weights and tumor volumes are recorded twice a week. Tumor volumes are measured with calipers and determined according to the formula length×diameter^2×π/6. In addition to presenting changes of tumor volumes over the course of treatments, antitumor activity is expressed as T/C % (mean change of tumor volume of treated animals/mean change of tumor volume of control animals)×100. Regressions (%) are calculated according to the formula ((mean tumor volume at end of treatment-mean tumor volume at start of treatment)/mean tumor volume at start of treatment)×100.
Preparation of Compound Solutions: Vehicle control is prepared by mixing 250 μl 1-methyl-2-pyrrolidone (“NMP”)(Fluka #69118), 750 μl Polyethylene glycol 300 (“PEG300”)(Fluka, #81162), 500 μl Solutol HS15 (BASF, #51633963) and 1000 μl water.
Statistics: For all tests, the level of significance is set at p<0.05. For tumor volumes, comparisons between treatment groups and vehicle control group are done using one-way ANOVA followed by Dunnett's test. The level of significance of body weight change within a group between the start and the end of the treatment period is determined using a paired t-test. Comparisons of delta body weighs between treatment and vehicle control groups are performed by a one-way ANOVA followed by a post hoc Dunnett's test. Calculations are performed using GraphPad Prism 6 for Windows (GraphPad Software Inc.).
Estimation of drug-drug interaction: an approximation of drug interactions is made using the method described by Clarke R., “Issues in experimental design and endpoint analysis in the study of experimental cytotoxic agents in vivo in breast cancer and other models”, Breast Cancer Res. Treat., 46, 255-78 (1997) (“Clark 1997”). This is applied to ΔTV (Mean tumor volume at the end of the treatment period—mean tumor volume at the beginning of the treatment period).
Upon performance of the foregoing experiment, the results are summarized in the table below: Ten millions RT-112 cells are injected subcutaneously into the right flank of female athymic nude mice on Day 0. On day 14, tumors are measured and mice are randomized into treatment groups with 8 mice per group. […] Statistics on Δ tumor volumes are performed with a one-way ANOVA, post hoc Dunnett's (*p<0.05 vs. vehicle controls) to compare treatment groups against the vehicle control group. For body weights, paired t tests between the weights at the beginning and the end of the treatment period are performed (*p<0.05).
A compound interaction analysis with the method described by Clarke 1997 is conducted. In accordance with this method, the experimental data is interpreted as follows: antagonism is predicted when the calculation AB/C>B/C×A/C, additive interaction is predicted when the calculation AB/C=B/C×A/C, and synergistic when AB/C<B/C×A/C.

[2] = test system: FGFR kinase receptors 1-4 (FGFR1, FGFR2, FGFR3, and FGFR4); details: cited from earlier work
pErk1/2 (pMAPK) = assay: Immunohistochemistry of RT112 tumors: pErk1/2 (pMAPK); format: in vivo, female Hsd: Athymic Nude-nu mice; details: 7 days, Compound A 50 mg/kg, Compound B 10 mg/kg, 2 hours after last treatment
Description: as §1, §2, §3, §4

[3] = Compound A 50 mg/kg, Compound B 10 mg/kg, p.o., q24 h, 14 days

| SMILES | inhibition of pAKT (immunohistochemistry) (pAKT (AKTpS473)) | Mean change of tumor volume [1] | % change of body weight [1, 3] [%] | Regression (%) [1, 3] | Survival (survivors/total) [1, 3] | Mean change of body weight (g ± SEM) ([1]; Compound A 50 mg/kg, Compound B 10 mg/kg, p.o., q24 h, 14 days, *p<0.05 paired t test) [g] | Final Tumor Volume [1] | selectivity for FGFR kinase receptors 1-4 [2] | inhibition of pErk1/2 (pMAPK) (immunohistochemistry) (pErk1/2 (pMAPK)) | T/C (%) (change in tumor volume, treated vs vehicle) ([1]; 10 mg/kg p.o. q24 h, 14 days, non-statistically significant) | T/C (%) [1, 3] [%] | Mean change of tumor volume (mm^3 ± SEM) ([1]; Compound A 50 mg/kg, Compound B 10 mg/kg, p.o., q24 h, 14 days, *p<0.05 vs vehicle) [mm^3] | ratio to vehicle control (B/C, A/C, AB/C) ([1]; based on Final Tumor Volume) | ratio to vehicle control (B/C, A/C, AB/C) ([1]; based on Mean change of tumor volume) |
| --- | --- | --- | --- | --- | --- | --- | --- | --- | --- | --- | --- | --- | --- | --- |
| Cc1nc(NC(=O)N2CCC[C@H]2C(N)=O)sc1-c1ccnc(C(C)(C)C(F)(F)F)c1 [Compound A, (S)-Pyrrolidine-1,2-dicarboxylic acid 2-amide 1-({4-methyl-5-[2-(2,2,2-trifluoro-1,1-dimethyl-ethyl)-pyridin-4-yl]-thiazol-2-yl}-amide)] | strongly inhibits; also recorded: significantly inhibits | −2 | −0.8 | 1.1% and −1.1% | 8/8 | -0.2 ± 0.4 | 179.4 | – | – | – | – | – | – | – |
| CCN1CCN(c2ccc(Nc3cc(N(C)C(=O)Nc4c(Cl)c(OC)cc(OC)c4Cl)ncn3)cc2)CC1 [Compound B, 3-(2,6-dichloro-3,5-dimethoxy-phenyl)-1-{6-[4-(4-ethylpiperazin-1-l)-phenylamino]-pyrimidin-4-yl}-1-methyl-urea] | – | 145.6 | – | – | 8/8 | – | 327.2 | highly selective | strongly inhibits; also recorded: significantly inhibits | 54.4 | 54.4 | 145.6 ± 66.5 | 0.728 | 0.544 |
